Assay results reported in patent US20040248245A1, “Zinc activated ion channel” (priority 2003, published 2004).
Where two headings read alike, the source gives them in different places.

Target: T1, human ZAC (zinc activated ion channel) (Homo sapiens, UniProt Q401N2)
T1 construct: expressed in transfected cells; host or cells: HEK (human embryonic kidney) cells, transient calcium phosphate transfection, vector pcDNA1.1/amp, GFP co-transfected on a separate plasmid (pCDM8)
T1 sequence (Q401N2 26-412): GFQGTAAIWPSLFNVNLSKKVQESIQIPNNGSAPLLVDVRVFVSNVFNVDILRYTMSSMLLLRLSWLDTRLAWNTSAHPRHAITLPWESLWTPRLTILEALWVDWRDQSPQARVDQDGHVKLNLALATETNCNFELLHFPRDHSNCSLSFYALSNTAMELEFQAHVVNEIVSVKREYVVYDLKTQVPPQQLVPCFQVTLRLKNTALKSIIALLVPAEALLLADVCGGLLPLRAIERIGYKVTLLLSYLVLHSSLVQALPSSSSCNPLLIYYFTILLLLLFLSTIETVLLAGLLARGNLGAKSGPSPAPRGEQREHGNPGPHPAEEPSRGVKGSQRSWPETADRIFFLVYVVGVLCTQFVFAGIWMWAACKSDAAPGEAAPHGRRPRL
Test: Whole cell patch-clamp recording of currents from HEK cells transfected with human ZAC
Format: cell-based
Protocol: To generate HEK expressing hZAC, HEK cells were grown in Dulbecco's modified Eagle's medium, supplemented with 10% calf serum, 100 IU/ml penicillin, and 100 μg/ml streptomycin. Following confluence, the cells were seeded into 35 mm diameter dishes and transfected with cDNAs encoding the human ZAC subunit (in pcDNA1.1/amp) and green fluorescent protein (GFP) (in pCDM8). Cells were transfected using calcium phosphate precipitation as known in the art. Cells were used 24-44 h after transfection.
The whole cell patch-clamp technique was used to record currents from HEK cells. The bath was perfused continuously (5 ml/min) with an extracellular solution containing (in mM); NaCl, 140; KCl, 4.7; MgCl2, 1.2; CaCl2, 2.5; glucose, 11; and HEPES, 10 (pH 7.4 with NaOH). The electrode solution contained (in mM); KCl, 140; MgCl2, 2.0; EGTA, 11; and HEPES, 10 (pH 7.4 with KOH). The intracellular solution used to characterize the cation permeability of ZAC channels contained (in mM); KCl, 70; N-methyl-D-glucamine, 70; MgCl2, 2.0; EGTA, 11; and HEPES, 10 (pH 7.4 with HCl). The intracellular solution used to determine the contribution of Cl^− to the ZAC currents contained (in mM); KCl, 70; K^+ gluconate, 70; MgCl2, 2.0; EGTA, 11; and HEPES, 10 (pH 7.4 with KOH). Junction potentials were nulled prior to each experiment. Inappropriate inappropriate compensation was ignored in graphs of current-voltage relationships, but equilibrium potential values were corrected. Cells were clamped at −60 mV unless otherwise stated. Drugs were applied either by pressure ejection from modified micropipettes or by bath perfusion as known in the art. Experiments were performed at 22-24° C.
Currents were amplied (Axopatch 200A, Axon Instruments), low pass-filtered at 1 kHz, and digitized (Digidata 1320, Axon Instruments, Foster City, Calif.) for acquisition onto the hard drive of a personal computer. Currents were averaged, superimposed, and measured using pCLAMP software (Axon Instruments). Zn^+2 concentration-response data were obtained by prolonged (2 s) pressue ejection of randomized agonist concentrations from low resistance pipettes as known in the art.
To compensate, 1 mM Zn^+2 was applied before each concentration of Zn^+2. The amplitudes of the Zn^+2 activated currents were subsequently normalized to the current elicited by the prior application of 1 mM Zn^+2.
Graphs of concentration-response relationships were fitted using a logistic function as known in the art. Current-voltage relationships were analyzed by averaging at least two currents recorded at each holding potential. Individual current-voltage relationships were plotted, and a linear fit to points either side of current reversal yielded the equilibrium potential. All data are expressed as the arithmetic mean±S.E., and statistical comparisons were made using the Student's t test.

[1] = HEK cells expressing hZAC, whole cell patch-clamp, clamped at −60 mV, 22-24° C.
[2] = HEK cells expressing hZAC, whole cell patch-clamp

Compound	Activation of ZAC [1]	also measured
neuropeptide Y	did not activate	
CNC[C@H](O)c1ccc(O)c(O)c1 [epinephrine]		Activation of ZAC: did not activate
N[C@@H](CCC(=O)O)C(=O)O [glutamate]	did not activate	
α-bungarotoxin		Effect of antagonists on ZAC (inhibition): no effect
[Zn+2] [Zn^+2, zinc]	activated	Concentration required for activation of ZAC [2]: > 30 µM; Equilibrium potential of Zn+2 activated currents (HEK cells expressing hZAC, whole cell patch-clamp, mean±S.E.): −5±1 mV
NCCCC(=O)O [GABA, γ-amino butyric acid]	did not activate	
C[N+]1(C)CCc2cc3c(cc2[C@H]1[C@@H]1OC(=O)c2c1ccc1c2OCO1)OCO3.[I-] [bicuculline methiodide]		Effect of antagonists on ZAC (inhibition) [2]: no effect
CNC1(C)C2CCC(C2)C1(C)C (stereo not shown) [mecamylamine]		Effect of antagonists on ZAC (inhibition) [2]: no effect
NCC(=O)O [glycine]	did not activate	
CN1CC[C@]23c4c5ccc(O)c4O[C@H]2[C@@H](O)C=C[C@H]3[C@H]1C5 [morphine]		Activation of ZAC: did not activate
NCCc1ccc(O)c(O)c1 [dopamine]	did not activate	
N[C@@H](CCC(=O)N[C@@H](CS)C(=O)NCC(=O)O)C(=O)O [glutathione]	did not activate	
CC(C)c1cccc(C(C)C)c1O [propofol]		Activation of ZAC: did not activate
CC[C@H](C)[C@@H]1NC(=O)[C@H](Cc2ccc(O)cc2)NC(=O)[C@@H](N)CSSC[C@@H](C(=O)N2CCC[C@H]2C(=O)N[C@@H](CC(C)C)C(=O)NCC(N)=O)NC(=O)[C@H](CC(N)=O)NC(=O)[C@H](CCC(N)=O)NC1=O [oxytocin]	did not activate	
galonin	did not activate	
Nc1ncnc2c1ncn2[C@@H]1O[C@H](COP(=O)(O)OP(=O)(O)OP(=O)(O)O)[C@@H](O)[C@H]1O [ATP]	did not activate	
NCCc1c[nH]cn1 [histamine]	did not activate	
CC(=O)[C@H]1CC[C@H]2[C@@H]3CC[C@H]4C[C@H](O)CC[C@]4(C)[C@H]3CC[C@]12C [allopregnanolone]	did not activate	
CNC1(c2ccccc2Cl)CCCCC1=O (stereo not shown) [ketamine]	did not activate	
Cc1nccn1CC1CCc2c(c3ccccc3n2C)C1=O (stereo not shown) [ondansetron]		Effect of antagonists on ZAC (inhibition) [2]: no effect
somatostain	did not activate	
NCCc1c[nH]c2ccc(O)cc12 [5-HT, 5-hydroxytryptamine]	did not activate	
COc1cc2c3cc1Oc1cc(ccc1O)C[C@@H]1c4c(cc(OC)c(O)c4Oc4ccc(cc4)C[C@@H]3N(C)CC2)CC[N+]1(C)C [Tubocurarine]		Effect of antagonists on ZAC (inhibition) [2]: inhibited
